# ChEMBL document CHEMBL3044572, “Discovery of 2-(4-cyano-3-trifluoromethylphenyl amino)-4-(4-quinazolinyloxy)-6-piperazinyl(piperidinyl)-s-triazines as potential antibacterial agents” (2012)
# Calls of active or inactive are those of the source. The rule behind the calls is not given here.
# What was measured:
# Bacillus cereus = assay: Antimicrobial activity against Bacillus cereus MTCC 619 at 100 ug/ml by paper disk diffusion method; type: functional, organism-based
# [1] = system: Mycobacterium tuberculosis; assay: Antimicrobial activity against Mycobacterium tuberculosis H37Rv at 100 ug/ml by BACTEC MGIT method; type: functional, organism-based
# [2] = system: Mycobacterium tuberculosis; assay: Antimicrobial activity against Mycobacterium tuberculosis H37Rv by Lowenstein and Jensen method; type: functional; details: for MIC: Mycobacterium tuberculosis, H37Rv
# Escherichia coli [3] = assay: Antimicrobial activity against Escherichia coli MTCC 739 by paper disk diffusion method; type: functional
# Aspergillus clavatus = assay: Antimicrobial activity against Aspergillus clavatus MTCC 1323 at 100 ug/ml by paper disk diffusion method; type: functional, organism-based
# Staphylococcus aureus [4] = assay: Antimicrobial activity against Staphylococcus aureus MTCC 96 by agar streak dilution method; type: functional
# Klebsiella pneumoniae [5] = assay: Antimicrobial activity against Klebsiella pneumoniae MTCC 109 by paper disk diffusion method; type: functional
# Escherichia coli [6] = assay: Antimicrobial activity against Escherichia coli MTCC 739 by agar streak dilution method; type: functional
# Pseudomonas aeruginosa = assay: Antimicrobial activity against Pseudomonas aeruginosa MTCC 741 at 100 ug/ml by paper disk diffusion method; type: functional, organism-based
# Candida albicans [7] = assay: Antimicrobial activity against Candida albicans MTCC 183 by paper-disk diffusion method; type: functional
# Staphylococcus aureus [8] = assay: Antimicrobial activity against Staphylococcus aureus MTCC 96 by paper-disk diffusion method; type: functional
# Aspergillus fumigatus = assay: Antimicrobial activity against Aspergillus fumigatus MTCC 343 at 100 ug/ml by paper-disk diffusion method; type: functional, organism-based
# Candida albicans [9] = assay: Antimicrobial activity against Candida albicans MTCC 183 by agar streak dilution method; type: functional
# Salmonella typhi [10] = assay: Antimicrobial activity against Salmonella enterica subsp. enterica serovar Typhi MTCC 733 by paper disk diffusion method; type: functional
# Shigella flexneri [11] = assay: Antimicrobial activity against Shigella flexneri MTCC 1457 at 100 ug/ml by paper-disk diffusion method; type: functional, organism-based
# Proteus vulgaris [12] = assay: Antimicrobial activity against Proteus vulgaris MTCC 1771 at 100 ug/ml by paper disk diffusion method; type: functional, organism-based
# Klebsiella pneumoniae [13] = assay: Antimicrobial activity against Klebsiella pneumoniae MTCC 109 by agar streak dilution method; type: functional
# Salmonella typhi [14] = assay: Antimicrobial activity against Salmonella enterica subsp. enterica serovar Typhi MTCC 733 by agar streak dilution method; type: functional
# [15] = system: Mycobacterium tuberculosis; assay: Antimicrobial activity against Mycobacterium tuberculosis H37Rv by BACTEC MGIT method; type: functional; details: Mycobacterium tuberculosis, H37Rv
# Aspergillus niger = assay: Antimicrobial activity against Aspergillus niger MTCC 282 at 100 ug/ml by paper-disk diffusion method; type: functional, organism-based
# Klebsiella pneumoniae [16] = assay: Antimicrobial activity against Klebsiella pneumoniae MTCC 109 at 100 ug/ml by paper disk diffusion method; type: functional, organism-based
# Proteus vulgaris [17] = assay: Antimicrobial activity against Proteus vulgaris MTCC 1771 by paper disk diffusion method; type: functional
# Proteus vulgaris [18] = assay: Antimicrobial activity against Proteus vulgaris MTCC 1771 by agar streak dilution method; type: functional
# Salmonella typhi [19] = assay: Antimicrobial activity against Salmonella enterica subsp. enterica serovar Typhi MTCC 733 at 100 ug/ml by paper disk diffusion method; type: functional, organism-based
# Staphylococcus aureus [20] = assay: Antimicrobial activity against Staphylococcus aureus MTCC 96 at 100 ug/ml by paper-disk diffusion method; type: functional, organism-based
# Escherichia coli [21] = assay: Antimicrobial activity against Escherichia coli MTCC 739 at 100 ug/ml by paper-disk diffusion method; type: functional, organism-based
# Shigella flexneri [22] = assay: Antimicrobial activity against Shigella flexneri MTCC 1457 by paper disk diffusion method; type: functional
# Candida albicans [23] = assay: Antimicrobial activity against Candida albicans MTCC 183 at 100 ug/ml by paper-disk diffusion method; type: functional, organism-based
# Shigella flexneri [24] = assay: Antimicrobial activity against Shigella flexneri MTCC 1457 by agar streak dilution method; type: functional
SMILES,inhibition zone (IZ) (Bacillus cereus),inhibition [1],inhibition (percent inhibition) [2] [%],MIC [2] [µg/mL],inhibition zone (IZ) (Aspergillus clavatus),inhibition zone (IZ) (Pseudomonas aeruginosa),inhibition zone (IZ) (Candida albicans [7]) [mm],inhibition zone (IZ) (Aspergillus fumigatus),MIC (Candida albicans [9]) [µg/mL],inhibition zone (IZ) (Shigella flexneri [11]),inhibition zone (IZ) (Proteus vulgaris [12]),MIC [15] [µg/mL],inhibition zone (IZ) (Aspergillus niger),inhibition zone (IZ) (Klebsiella pneumoniae [16]),inhibition zone (IZ) (Salmonella typhi [19]),inhibition zone (IZ) (Staphylococcus aureus [20]),inhibition zone (IZ) (Escherichia coli [21]),other results
CCN1CCN(c2nc(Nc3ccc(C#N)c(C(F)(F)F)c3)nc(Oc3ncnc4ccccc34)n2)CC1,inactive,inactive,95,500,inactive,inactive,21,inactive,100,inactive,inactive,> 6.25,inactive,,,,,inhibition zone (IZ) (Escherichia coli [3]): 21 mm; MIC (Staphylococcus aureus [4]): 100 µg/mL; inhibition zone (IZ) (Klebsiella pneumoniae [5]): 19 mm; MIC (Escherichia coli [6]): 100 µg/mL; inhibition zone (IZ) (Staphylococcus aureus [8]): 23 mm; inhibition zone (IZ) (Salmonella typhi [10]): 23 mm; MIC (Klebsiella pneumoniae [13]): 100 µg/mL; MIC (Salmonella typhi [14]): 100 µg/mL
N#Cc1ccc(Nc2nc(Oc3ncnc4ccccc34)nc(N3CCN(c4ccccc4)CC3)n2)cc1C(F)(F)F,inactive,inactive,94,1000,inactive,inactive,19,inactive,100,inactive,,> 6.25,inactive,inactive,inactive,inactive,inactive,inhibition zone (IZ) (Proteus vulgaris [17]): 23 mm; MIC (Proteus vulgaris [18]): 50 µg/mL
CN1CCN(c2nc(Nc3ccc(C#N)c(C(F)(F)F)c3)nc(Oc3ncnc4ccccc34)n2)CC1,inactive,inactive,95,250,inactive,inactive,,inactive,,,inactive,> 6.25,inactive,inactive,inactive,inactive,inactive,inhibition zone (IZ) (Shigella flexneri [22]): 22 mm; inhibition zone (IZ) (Candida albicans [23]): inactive; MIC (Shigella flexneri [24]): 100 µg/mL
